Entries after “also recorded” stand apart in the source; their conditions may differ.
Tests used:
HCT116p53−/− cells = assay: Clonogenic assay (CFA) after γ-irradiation, HCT116 p53-/-; assay type: cell-based; details: 20 μM peptide, γ radiation 0-8 Gray, colonies counted after two weeks
Procedure: (§1) One hundred HeLa cells or 500 HCT116p53^+/+ or 500 HCT116p53^−/− cells were seeded in 8.5 cm plates and after 24 hours later treated or not with TAT or TAT-RasGAP317-326 (20 μM) prior exposure to the various doses of γ radiation (0, 1, 2, 4, 6 or 8 Gray).
(§2) After two weeks, the culture medium was removed and the plates were gently washed with water. A crystal violet solution (0.5% crystal violet in 25% methanol) was then added to stain colonies and gently washed out with water. The number of colonies was then counted.
(§3) The clonogenic formation assay (CFA) was performed using cancer cell lines (HCT116 with or without p53) (FIG. 1A-B) and non-tumorigenic HaCaT cells (FIG. 1C) that were subjected to the various doses of γ radiation (0, 1, 2, or 4, Gray), in the presence or in absence of TAT-RasGAP317-326 (20 μM). The number of colonies was determined two weeks after irradiation.

HCT116 p53−/− tumors = assay: Radio-sensitization in mice bearing HCT116 p53-/- xenografts; assay type: in vivo; details: 1 mg/kg i.p. every day for 10 days, γ-irradiation 3 Gy 1 hour after injection, nu/nu mice
From the text: (§4) Immunodeficient mice bearing subcutaneous tumors allow easy access of the tumors to defined fractionated irradiation doses with minimal effect on surrounding tissues and without the need of anesthesia. This latter point is important because anesthesia can modify the response to radiation therapy (Denekamp, 1979) and anesthesia is generally not used in patients during radiotherapy.
(§5) HCT116 tumor cells, lacking or not p53, were grafted onto the back of female Swiss homozygous nu/nu mice leading to the development of subcutaneous tumors. Then, the immunodeficient mice bearing subcutaneous tumors were divided into four experimental groups as follows:
(§6) 1) Intraperitoneal PBS injections and no irradiation. 2) Intraperitoneal TAT-RasGAP317-326 injections (every day, 1 mg peptide per kg of mouse in 300 μl PBS) and no irradiation. 3) Intraperitoneal PBS injection and γ-irradiation (3 Gy). 4) Intraperitoneal TAT-RasGAP317-326 injections and γ-irradiation.
(§7) The treatments (i.e. peptide injections followed by irradiation) were performed every day for 10 days without interruption. γ-irradiation was performed 1 hour after the peptide injection. The size of the tumors was monitored 3 times a week. #: mice were sacrificed when the tumors reached a volume of about 800 mm^3.

HCT116 xenografts = assay: Radio-sensitization in mice bearing HCT116 xenografts; assay type: in vivo; details: 1 mg/kg i.p. every day for 10 days, γ-irradiation 3 Gy 1 hour after injection, nu/nu mice
From the text: as §4, §5, §6, §7

HCT116p53+/+ cells = assay: Clonogenic assay (CFA) after γ-irradiation, HCT116 p53+/+; assay type: cell-based; details: 20 μM peptide, γ radiation 0-8 Gray, colonies counted after two weeks
Procedure: as §1, §2, §3

tumor growth = details: cited from earlier work
HaCaT cells = assay: Clonogenic assay (CFA) after γ-irradiation, non-tumorigenic HaCaT; assay type: cell-based; details: 20 μM peptide, γ radiation 0, 1, 2 or 4 Gray, colonies after two weeks
Procedure: as §2, §3

tumor cells = details: cited from earlier work

## TAT-RasGAP317-326: HIV-TAT48-57 peptide conjugated to RasGAP317-326 (WMWVTNLRTD) with two glycine residues as spacer; cell permeable peptide (GRKKRRQRRRGGWMWVTNLRTD)
HCT116p53−/− cells
  efficacy of γ-irradiation-mediated cell killing (number of colonies): increases the efficacy of γ-irradiation-mediated cell killing
HCT116 p53−/− tumors
  growth of irradiated HCT116 p53−/− tumors: very efficiently hampered
HCT116 xenografts
  tumor growth / tumor volume of irradiated tumors: significant growth delay and reduction in tumor volume
HCT116p53+/+ cells
  efficacy of γ-irradiation-mediated cell killing (number of colonies): increases the efficacy of γ-irradiation-mediated cell killing
Tumor growth; combined with genotoxins
  ability of cisplatin and other genotoxins to inhibit tumor growth: increases the ability of cisplatin and other genotoxins to inhibit tumor growth
Tumor growth; mouse, in vivo
  dose still exerting genotoxin-sensitization on tumor growth, relative to lethal doses: > 100 fold below the lethal doses
HaCaT cells
  γ-radiation-sensitivity of non-cancer cells (number of colonies): not in a non-cancer cell line; also recorded: no influence on the γ-radiation-sensitivity
Tumor cells; non-tumor cells
  sensitization of non-tumor cells to genotoxin-induced apoptosis: nor does it sensitize non-tumor cells
Tumor cells; peptide by itself
  apoptosis of tumor cells by the peptide alone: does not by itself modulate apoptosis of tumor cells
Tumor cells; tumor cells with genotoxin
  sensitization of tumor cells to genotoxin-induced death: specifically sensitizes tumor cells to genotoxin-induced death
